Measured values reported in the supplement of paper PMC10307832.

What was measured:
Assay in all cases: relative viability (nuclei count vs DMSO), 5 days (fraction); higher = more cells survive
[1] = compound: CN[C@@H]1C[C@H]2O[C@@](C)([C@@H]1OC)n1c3ccccc3c3c4c(c5c6ccccc6n2c5c31)C(=O)NC4 [Staurosporine] + C[C@]1(O)C[C@@H](c2nc(-c3ccc4ccc(-c5ccccc5)nc4c3)c3c(N)nccn32)C1 [Linsitinib] (partner 1 µM)
Method in brief: (§1)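 Relative viability divides the nuclei count in treated wells by that in vehicle wells. Lung cancer cell lines were seeded in 1536-well plates, dosed by pin tool the next day, and fixed and stained after 5 days in one step with final 0.05% Triton X-100, 1% formaldehyde and 1 ug/ml Hoechst. Dosing was a single drug or a fixed anchor-drug dose plus five library-drug doses (not always all listed) in √10 steps, and values are medians of duplicate plates imaged at 4×.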

Sulindac + Tozasertib = compound: CC1=C(CC(=O)O)c2cc(F)ccc2/C1=C\c1ccc([S+](C)[O-])cc1 [Sulindac] + Cc1cc(Nc2cc(N3CCN(C)CC3)nc(Sc3ccc(NC(=O)C4CC4)cc3)n2)n[nH]1 [Tozasertib] (partner 0.1 µM)
Method in brief: as §1

Sulindac + Vorinostat = compound: CC1=C(CC(=O)O)c2cc(F)ccc2/C1=C\c1ccc([S+](C)[O-])cc1 [Sulindac] + O=C(CCCCCCC(=O)Nc1ccccc1)NO [Vorinostat] (partner 1 µM)
Method in brief: as §1

[2] = compound: O=c1[nH]cc(F)c(=O)[nH]1 [5-Fluorouracil] + N=C(N)NC(=N)NCCc1ccccc1 [Phenformin] (partner 250 µM)
Method in brief: as §1

Cell Line	relative viability ([1]; first compound 0.005 µM)	relative viability ([1]; first compound 0.01581 µM)	relative viability ([1]; first compound 0.05 µM)	relative viability ([1]; first compound 0.1581 µM)	relative viability ([1]; first compound 0.5 µM)	relative viability (Sulindac + Tozasertib; first compound 0.08 µM)	relative viability (Sulindac + Tozasertib; first compound 0.253 µM)	relative viability (Sulindac + Tozasertib; first compound 0.8 µM)	relative viability (Sulindac + Tozasertib; first compound 2.53 µM)	relative viability (Sulindac + Tozasertib; first compound 8 µM)	relative viability (Sulindac + Vorinostat; first compound 0.08 µM)	relative viability (Sulindac + Vorinostat; first compound 0.253 µM)	relative viability (Sulindac + Vorinostat; first compound 2.53 µM)	relative viability (Sulindac + Vorinostat; first compound 8 µM)	relative viability ([2]; first compound 0.02 µM)	relative viability ([2]; first compound 0.2 µM)	relative viability ([2]; first compound 0.6325 µM)	relative viability ([2]; first compound 2 µM)	relative viability (Sulindac + Vorinostat; first compound 0.8 µM)
EBC-1	0.738	0.523	0.181	0.122	0.111														
EKVX	0.624	0.357	0.22	0.183	0.109	0.417	0.334	0.345	0.434	0.407	0.636	0.635	0.652	0.771	0.18	0.179	0.13	0.134	
EMC-BAC-2	0.457	0.394	0.122	0.152	0.133	0.269	0.298	0.287	0.278	0.315	0.559	0.405	0.426	0.528	0.625	0.542	0.498	0.51	0.367
EPLC-272H	1.17	0.732	0.352	0.25	0.234	0.152	0.25		0.25	0.408	0.465	0.341	0.339	0.424	0.247	0.257	0.245	0.184	0.68
H3255	0.814	0.549	0.303	0.226	0.116	0.593	0.546	0.413	0.616	0.619	0.765	0.723	0.695	0.819	0.35	0.393	0.35	0.351	0.661
HARA	0.762	0.192	0.155	0.0968	0.0872	0.0822	0.0844	0.121	0.0886	0.103	0.474	0.675	0.512	0.461	0.426	0.559	0.455	0.27	0.425
HCC-15	0.921		0.656	0.444	0.276	0.29	0.423	0.318	0.421	0.37	0.94	0.885	0.835	0.975	0.563	0.532	0.332	0.27	0.738
HCC-44	0.328	0.194	0.101	0.111	0.0981	1.08	1.04		0.938	0.981	1.14	1.1	1.1	1.1		0.262	0.154	0.182	1.14
HCC-78	0.613	0.457	0.363	0.295	0.268	0.445	0.476	0.403	0.42	0.367	0.363	0.415	0.455	0.462	0.697	0.706	0.558	0.312	0.433
